Reference: patent publication US5807541A, “NSAID/fluoride periodontal compositions and methods” (Sepracor, Inc., priority 1996, dated 1998)
Read-outs that look alike come from different tables or passages of the source.

Experiments:
[1] = test system: PGE2 secretion in human promyelocytic leukemia cells (HL-60 cells); assay: PGE2 secretion in human promyelocytic leukemia (HL-60) cells (A23187-induced), fluoride and NSAIDs alone or combined; conditions: for % Inhibition of A23187-induced PGE2 secretion / % stimulation of A23187-induced PGE2 secretion: mean of two determinations; for % inhibition of PGE2 / % stimulation of PGE2 (value in parentheses): Table II;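 on all read-outs here: fluoride given as NaF, each condition run in duplicate, signals corrected for background and referenced to control, IC50 obtained by nonlinear regression Hill fitting of the curve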
[2] = test system: dental caries; conditions: professionally applied topical fluoride, dentifrices and mouthwashes; high risk patients; cited from earlier work
[3] = test system: prostaglandin production in endothelial cells; conditions: under certain circumstances; cited from earlier work
[4] = test system: G proteins; conditions: under certain circumstances; cited from earlier work
[5] = Homo sapiens, HL-60, read-out: IC50, inhibition of PGE2 secretion, summary of Tables III and IV
[6] = ketoprofen enantiomer 10^-7 M + F 0.05%
[7] = ketoprofen enantiomer 10^-7 M + F 0.1%
[8] = ketoprofen enantiomer 10^-7 M + F 0.5%
[9] = ketoprofen enantiomer 10^-7 M, F 0%
[10] = ketoprofen enantiomer 10^-8 M + F 0.05%
[11] = ketoprofen enantiomer 10^-8 M + F 0.1%
[12] = ketoprofen enantiomer 10^-8 M + F 0.5%
[13] = ketoprofen enantiomer 10^-8 M, F 0%
[14] = ketoprofen enantiomer 10^-9 M + F 0.05%
[15] = ketoprofen enantiomer 10^-9 M + F 0.1%
[16] = ketoprofen enantiomer 10^-9 M + F 0.5%
[17] = ketoprofen enantiomer 10^-9 M, F 0%
[18] = ketoprofen enantiomer 10^-10 M + F 0.05%, 0.0001 µM
[19] = ketoprofen enantiomer 10^-10 M + F 0.05%
[20] = ketoprofen enantiomer 10^-10 M + F 0.1%
[21] = ketoprofen enantiomer 10^-10 M + F 0.5%
[22] = ketoprofen enantiomer 10^-10 M, F 0%
[23] = Homo sapiens, HL-60, read-out: % inhibition of PGE2

SMILES: C[C@H](C(=O)O)c1cccc(C(=O)c2ccccc2)c1 [(S)-Ketoprofen]
- IC50 [1, 5]: ~0.4 nM
- relative potency, inhibition of PGE2 secretion (in words) ([1]; S- vs R-ketoprofen): more potent than R-ketoprofen
- % Inhibition of A23187-induced PGE2 secretion [1, 6]: 95%
- % Inhibition of A23187-induced PGE2 secretion [1, 7]: 98%
- % Inhibition of A23187-induced PGE2 secretion [1, 8]: 99%
- % Inhibition of A23187-induced PGE2 secretion [1, 9]: 96%
- % Inhibition of A23187-induced PGE2 secretion [1, 10]: 82%
- % Inhibition of A23187-induced PGE2 secretion [1, 11]: 89%
- % Inhibition of A23187-induced PGE2 secretion [1, 12]: 98%
- % Inhibition of A23187-induced PGE2 secretion [1, 13]: 89%
- % Inhibition of A23187-induced PGE2 secretion [1, 14]: 35%
- % Inhibition of A23187-induced PGE2 secretion [1, 15]: 54%
- % Inhibition of A23187-induced PGE2 secretion [1, 16]: 100%
- % Inhibition of A23187-induced PGE2 secretion [1, 17]: 70%
- stimulation factor, A23187-induced PGE2 secretion [1, 18]: 1.22 ×
- % stimulation of A23187-induced PGE2 secretion [1, 19]: 27%
- % Inhibition of A23187-induced PGE2 secretion [1, 20]: 18%
- % Inhibition of A23187-induced PGE2 secretion [1, 21]: 100%
- % Inhibition of A23187-induced PGE2 secretion [1, 22]: 10%

SMILES: C[C@@H](C(=O)O)c1cccc(C(=O)c2ccccc2)c1 [(R)-Ketoprofen]
- IC50 [1, 5]: ~100 nM
- % Inhibition of A23187-induced PGE2 secretion [1, 6]: 47%
- % Inhibition of A23187-induced PGE2 secretion [1, 7]: 75%
- % Inhibition of A23187-induced PGE2 secretion [1, 8]: 100%
- % Inhibition of A23187-induced PGE2 secretion [1, 9]: 81%
- % Inhibition of A23187-induced PGE2 secretion [1, 10]: 5%
- % Inhibition of A23187-induced PGE2 secretion [1, 11]: 32%
- % Inhibition of A23187-induced PGE2 secretion [1, 12]: 99%
- % Inhibition of A23187-induced PGE2 secretion [1, 13]: 39%
- stimulation factor, A23187-induced PGE2 secretion ([1]; ketoprofen enantiomer 10^-9 M + F 0.05%, 0.001 µM): 1.14 ×
- % stimulation of A23187-induced PGE2 secretion [1, 14]: 14%
- % Inhibition of A23187-induced PGE2 secretion [1, 15]: 2%
- % Inhibition of A23187-induced PGE2 secretion [1, 16]: 99%
- % Inhibition of A23187-induced PGE2 secretion [1, 17]: 6%
- stimulation factor, A23187-induced PGE2 secretion [1, 18]: 1.27 ×
- % stimulation of A23187-induced PGE2 secretion [1, 19]: 27%
- % Inhibition of A23187-induced PGE2 secretion [1, 20]: 23%
- % Inhibition of A23187-induced PGE2 secretion [1, 21]: 98%
- % Inhibition of A23187-induced PGE2 secretion [1, 22]: 14%

SMILES: CC(C(=O)O)c1cccc(C(=O)c2ccccc2)c1 (racemic) [ketoprofen]
- inhibition of PGE2 (in words) ([1]; 10^-10 M ketoprofen alone): undetected
- PGE2 production (in words) ([1]; 10^-10 M ketoprofen at 260 mM fluoride): totally inhibited
- inhibition at 0.001 µM [1, 23]: 40%
- inhibition at 0.01 µM [1, 23]: 63%
- inhibition at 0.1 µM [1, 23]: 82%
- IC50 ([1]; Homo sapiens, HL-60, read-out: IC50, PGE2 production, racemic ketoprofen + 52 mM fluoride): 11.8 nM
- IC50 ([1]; Homo sapiens, HL-60, read-out: IC50, PGE2 production, racemic ketoprofen alone (no F)): 2.8 nM
- inhibition at 0.0001 µM ([1]; Homo sapiens, HL-60, read-out: inhibition of PGE2 levels): 26%
- % inhibition of PGE2 ([1]; racemic ketoprofen 10^-7 M + fluoride 26 mM): 66%
- % inhibition of PGE2 ([1]; racemic ketoprofen 10^-7 M + fluoride 52 mM): 85%
- % inhibition of PGE2 ([1]; racemic ketoprofen 10^-7 M + fluoride 260 mM): 98%
- % inhibition of PGE2 ([1]; racemic ketoprofen 10^-8 M + fluoride 52 mM): 46%
- % inhibition of PGE2 ([1]; racemic ketoprofen 10^-8 M + fluoride 260 mM): 97%
- % stimulation of PGE2 (value in parentheses) ([1]; racemic ketoprofen 10^-9 M + fluoride 26 mM): 125%
- % inhibition of PGE2 ([1]; racemic ketoprofen 10^-9 M + fluoride 52 mM): 11%
- % inhibition of PGE2 ([1]; racemic ketoprofen 10^-9 M + fluoride 260 mM): 101%
- % stimulation of PGE2 (value in parentheses) ([1]; racemic ketoprofen 10^-10 M + fluoride 26 mM): 125%
- % inhibition of PGE2 ([1]; racemic ketoprofen 10^-10 M + fluoride 260 mM): 102%
- increase of IC50 for ketoprofen by fluoride ([1]; fluoride 0.1% (52 mM) vs ketoprofen alone): approximately 4 fold
- stimulation induced by F^- (in words) ([1]; highest concentration of ketoprofen (10^-7)): overcome

SMILES: [F-].[Na+] [fluoride, sodium fluoride]
- prevention of dental caries (in words) [2]: effective in preventing dental caries among high risk patients
- PGE2 secretion, % Control, 1st Value ([1]; F 0.0001% (52 μM)): 80.1%
- PGE2 secretion, % Control, 2nd value ([1]; F 0.0001% (52 μM)): 87.4%
- PGE2 secretion, % Control, mean ([1]; F 0.0001% (52 μM)): 83.7%
- PGE2 secretion, % Control, 1st Value ([1]; F 0.001% (520 μM)): 94.1%
- PGE2 secretion, % Control, 2nd value ([1]; F 0.001% (520 μM)): 74.9%
- PGE2 secretion, % Control, mean ([1]; F 0.001% (520 μM)): 84.5%
- PGE2 secretion, % Control, 1st Value ([1]; F 0.01% (5.2 mM)): 117.7%
- PGE2 secretion, % Control, 2nd value ([1]; F 0.01% (5.2 mM)): 99.8%
- PGE2 secretion, % Control, mean ([1]; F 0.01% (5.2 mM)): 108.7%
- PGE2 secretion, % Control, 1st Value ([1]; F 0.02% (10.4 mM)): 188.7%
- PGE2 secretion, % Control, 2nd value ([1]; F 0.02% (10.4 mM)): 208.8%
- PGE2 secretion, % Control, mean ([1]; F 0.02% (10.4 mM)): 198.8%
- PGE2 secretion, % Control, 1st Value ([1]; F 0.05% (26 mM)): 157.9%
- PGE2 secretion, % Control, 2nd value ([1]; F 0.05% (26 mM)): 177.3%
- PGE2 secretion, % Control, mean ([1]; F 0.05% (26 mM)): 167.6%
- stimulation factor, A23187-induced PGE2 secretion ([1]; F 0.05%, ketoprofen 0): 1.16 ×
- % stimulation of A23187-induced PGE2 secretion ([1]; F 0.05%, ketoprofen 0): 16%
- PGE2 secretion, % Control, 1st Value ([1]; F 0.07% (36 mM)): 142.1%
- PGE2 secretion, % Control, 2nd value ([1]; F 0.07% (36 mM)): 142.1%
- PGE2 secretion, % Control, mean ([1]; F 0.07% (36 mM)): 142.1%
- PGE2 secretion, % Control, 1st Value ([1]; F 0.1% (52 mM)): 115.1%
- PGE2 secretion, % Control, 2nd value ([1]; F 0.1% (52 mM)): 112.6%
- PGE2 secretion, % Control, mean ([1]; F 0.1% (52 mM)): 113.9%
- % Inhibition of A23187-induced PGE2 secretion ([1]; F 0.1%, ketoprofen 0): 26%
- PGE2 secretion, % Control, 1st Value ([1]; F 0.2% (104 mM)): 5.2%
- PGE2 secretion, % Control, 2nd value ([1]; F 0.2% (104 mM)): 8.9%
- PGE2 secretion, % Control, mean ([1]; F 0.2% (104 mM)): 7.0%
- PGE2 secretion, % Control, 1st Value ([1]; F 0.3% (156 mM)): 4.9%
- PGE2 secretion, % Control, 2nd value ([1]; F 0.3% (156 mM)): 3.1%
- PGE2 secretion, % Control, mean ([1]; F 0.3% (156 mM)): 4.0%
- PGE2 secretion, % Control, 1st Value ([1]; F 0.5% (260 mM)): 0.5%
- PGE2 secretion, % Control, 2nd value ([1]; F 0.5% (260 mM)): 1.7%
- PGE2 secretion, % Control, mean ([1]; F 0.5% (260 mM)): 1.1%
- % Inhibition of A23187-induced PGE2 secretion ([1]; F 0.5%, ketoprofen 0): 96%
- production of prostaglandins (in words) ([1]; concentration range employed for the prevention of dental caries): stimulates the production of prostaglandins
- maximum stimulation of PGE2 secretion ([1]; fluoride 0.02%): 99%
- effect of fluoride on the inhibitory effects of R- and S-ketoprofen (in words) ([1]; fluoride 26 mM): decrease of the inhibitory effects of R- and S-ketoprofen
- effect of fluoride in combination with R- and S-ketoprofen (in words) ([1]; fluoride 260 mM): amplifies its inhibitory effects
- effect on PGE2 secretion (in words) ([1]; fluoride above 0.2%): completely inhibits PGE2 secretion
- stimulation of PGE2 production ([1]; fluoride alone, 26 mM (0.05%)): 108%
- inhibition of PGE2 production ([1]; fluoride alone, 52 mM): 12%
- inhibition of PGE2 production ([1]; fluoride alone, 260 mM): 92%
- effect on stimulated PGE2 secretion (in words) ([1]; fluoride below about 5 mM (below about 0.01% w/v)): no significant effect
- effect on PGE2 secretion (in words) ([1]; fluoride from 0.0001 to 0.01%): no effect
- effect on PGE2 secretion (in words) ([1]; fluoride from 0.02 to 0.07%): induces stimulation
- effect on PGE2 secretion (in words) ([1]; fluoride ion above about 50 mM (above about 0.1% w/v)): inhibitory to PGE2 secretion
- peak production of PGE2, % of control ([1]; fluoride ion at about 10 mM): 200%
- production of PGE2 (in words) ([1]; fluoride ion between about 5 and about 50 mM): stimulates the production of prostaglandin E2
- prostaglandin production in endothelial cells (in words) [3]: induce prostaglandin production
- activation of G proteins (in words) [4]: activate G proteins

SMILES: COc1ccc2c(c1)c(CC(=O)O)c(C)n2C(=O)c1ccc(Cl)cc1 [indomethacin]
- IC50 ([1]; Homo sapiens, HL-60, read-out: IC50, A23187-induced PGE2 secretion, in the absence of fluoride): 0.92 nM
